# Target: T1, 3-oxo-5-alpha-steroid 4-dehydrogenase (Bacteroides thetaiotaomicron, UniProt Q8A618)
# T1 sequence (Q8A618 whole entry): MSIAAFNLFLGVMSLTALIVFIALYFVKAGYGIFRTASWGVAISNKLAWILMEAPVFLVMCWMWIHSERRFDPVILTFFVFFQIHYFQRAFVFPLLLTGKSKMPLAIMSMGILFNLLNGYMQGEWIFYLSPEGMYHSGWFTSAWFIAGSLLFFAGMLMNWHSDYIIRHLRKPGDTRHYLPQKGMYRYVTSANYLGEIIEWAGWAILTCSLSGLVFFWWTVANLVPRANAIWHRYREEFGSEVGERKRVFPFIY
# Test: (§1) The drug is tested on Bacteroides thetaiotaomicron strain: VPI-5482 for biotransformation. The drug concentrations were measured before and after a 12-h incubation by liquid-chromatography-coupled mass spectrometry (LC–MS)
# Type: ADME
# Set-up: dose 2 uM
# Conditions: 2 µM
row,Structure (SMILES),Bacterial Biotransformation
1,C#C[C@]1(O)CC[C@H]2[C@@H]3CCC4=CC(=O)CC[C@@H]4[C@H]3CC[C@@]21CC [LEVONORGESTREL],Compound metabolized
2,CC(=O)OCC(CCn1cnc2cnc(N)nc21)COC(C)=O [FAMCICLOVIR],Compound NOT metabolized

# Target: T2, Acyltransferase (Bacteroides thetaiotaomicron, UniProt Q8A575)
# T2 sequence (Q8A575 whole entry): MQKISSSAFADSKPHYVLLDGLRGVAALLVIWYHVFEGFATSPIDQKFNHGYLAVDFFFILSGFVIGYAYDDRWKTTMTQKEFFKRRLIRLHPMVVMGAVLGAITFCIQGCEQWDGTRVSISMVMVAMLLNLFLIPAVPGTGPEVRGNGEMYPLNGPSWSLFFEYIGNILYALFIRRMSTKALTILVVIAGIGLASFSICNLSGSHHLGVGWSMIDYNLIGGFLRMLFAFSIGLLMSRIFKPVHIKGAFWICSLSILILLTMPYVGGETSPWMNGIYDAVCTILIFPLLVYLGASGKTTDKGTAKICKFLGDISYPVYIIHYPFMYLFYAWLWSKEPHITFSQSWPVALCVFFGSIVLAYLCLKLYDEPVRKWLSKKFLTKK
# Test: as §1
# Type: ADME
# Set-up: dose 2 uM
# Conditions: 2 µM
row,Structure (SMILES),Bacterial Biotransformation
1,C#C[C@]1(O)CC[C@H]2[C@@H]3CCC4=CC(=O)CC[C@@H]4[C@H]3CC[C@@]21CC [LEVONORGESTREL],Compound NOT metabolized
2,CC(=O)OCC(CCn1cnc2cnc(N)nc21)COC(C)=O [FAMCICLOVIR],Compound NOT metabolized

# Target: T3, Endoglucanase E (EGE) (Bacteroides thetaiotaomicron, UniProt Q8AAL9)
# T3 sequence (Q8AAL9 whole entry): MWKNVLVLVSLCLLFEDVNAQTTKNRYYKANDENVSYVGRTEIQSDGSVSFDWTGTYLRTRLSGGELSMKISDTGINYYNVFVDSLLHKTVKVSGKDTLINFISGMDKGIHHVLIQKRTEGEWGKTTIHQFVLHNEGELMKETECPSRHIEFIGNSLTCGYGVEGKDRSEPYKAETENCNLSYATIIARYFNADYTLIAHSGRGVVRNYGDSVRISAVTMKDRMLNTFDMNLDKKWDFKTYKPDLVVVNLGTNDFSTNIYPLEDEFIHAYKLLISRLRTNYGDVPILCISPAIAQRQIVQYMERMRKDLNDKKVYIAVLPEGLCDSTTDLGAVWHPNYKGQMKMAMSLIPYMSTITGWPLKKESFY
# Test: as §1
# Type: ADME
# Set-up: dose 2 uM
# Conditions: 2 µM
row,Structure (SMILES),Bacterial Biotransformation
1,C#C[C@]1(O)CC[C@H]2[C@@H]3CCC4=CC(=O)CC[C@@H]4[C@H]3CC[C@@]21CC [LEVONORGESTREL],Compound NOT metabolized
2,CC(=O)OCC(CCn1cnc2cnc(N)nc21)COC(C)=O [FAMCICLOVIR],Compound NOT metabolized

# Target: General stress protein (Bacteroides thetaiotaomicron, UniProt Q8A7U5)
# Sequence (Q8A7U5 1-138, change not shown): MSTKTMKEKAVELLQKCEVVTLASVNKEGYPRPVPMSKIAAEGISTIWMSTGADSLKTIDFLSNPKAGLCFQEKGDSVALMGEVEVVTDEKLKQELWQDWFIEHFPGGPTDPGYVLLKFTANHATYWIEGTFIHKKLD
# Test: as §1
# Type: ADME
# Set-up: dose 2 uM
# Conditions: 2 µM
row,Structure (SMILES),Bacterial Biotransformation
1,C#C[C@]1(O)CC[C@H]2[C@@H]3CCC4=CC(=O)CC[C@@H]4[C@H]3CC[C@@]21CC [LEVONORGESTREL],Compound NOT metabolized
2,CC(=O)OCC(CCn1cnc2cnc(N)nc21)COC(C)=O [FAMCICLOVIR],Compound NOT metabolized

# Target: T4, Lipase (Bacteroides thetaiotaomicron, UniProt Q8A3J3)
# T4 sequence (Q8A3J3 whole entry): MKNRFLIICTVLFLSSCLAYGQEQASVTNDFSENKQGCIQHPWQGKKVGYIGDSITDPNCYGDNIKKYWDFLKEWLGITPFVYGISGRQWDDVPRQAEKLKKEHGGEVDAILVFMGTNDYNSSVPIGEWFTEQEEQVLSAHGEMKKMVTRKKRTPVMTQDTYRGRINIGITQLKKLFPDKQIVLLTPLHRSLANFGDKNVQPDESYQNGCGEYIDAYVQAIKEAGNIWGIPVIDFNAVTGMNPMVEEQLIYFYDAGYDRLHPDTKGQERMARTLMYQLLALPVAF
# Test: as §1
# Type: ADME
# Set-up: dose 2 uM
# Conditions: 2 µM
row,Structure (SMILES),Bacterial Biotransformation
1,C#C[C@]1(O)CC[C@H]2[C@@H]3CCC4=CC(=O)CC[C@@H]4[C@H]3CC[C@@]21CC [LEVONORGESTREL],Compound NOT metabolized
2,CC(=O)OCC(CCn1cnc2cnc(N)nc21)COC(C)=O [FAMCICLOVIR],Compound NOT metabolized

# Target: T5, Lipolytic enzyme, G-D-S-L family (Bacteroides thetaiotaomicron, UniProt Q8A0C5)
# T5 sequence (Q8A0C5 whole entry): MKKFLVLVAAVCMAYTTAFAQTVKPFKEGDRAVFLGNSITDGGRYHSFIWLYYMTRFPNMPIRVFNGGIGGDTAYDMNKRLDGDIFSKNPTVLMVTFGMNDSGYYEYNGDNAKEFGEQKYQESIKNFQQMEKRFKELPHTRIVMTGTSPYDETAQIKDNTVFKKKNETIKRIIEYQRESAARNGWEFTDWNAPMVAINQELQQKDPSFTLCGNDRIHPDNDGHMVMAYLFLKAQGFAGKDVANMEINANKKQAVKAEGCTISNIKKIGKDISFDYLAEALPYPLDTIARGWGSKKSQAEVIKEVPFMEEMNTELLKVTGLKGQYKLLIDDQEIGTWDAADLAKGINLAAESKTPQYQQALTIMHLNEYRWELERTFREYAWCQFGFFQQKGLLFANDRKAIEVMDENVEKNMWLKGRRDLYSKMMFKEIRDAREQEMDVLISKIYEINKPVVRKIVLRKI
# Test: as §1
# Type: ADME
# Set-up: dose 2 uM
# Conditions: 2 µM
row,Structure (SMILES),Bacterial Biotransformation
1,C#C[C@]1(O)CC[C@H]2[C@@H]3CCC4=CC(=O)CC[C@@H]4[C@H]3CC[C@@]21CC [LEVONORGESTREL],Compound NOT metabolized
2,CC(=O)OCC(CCn1cnc2cnc(N)nc21)COC(C)=O [FAMCICLOVIR],Compound metabolized

# Target: T6, Lipolytic enzyme, G-D-S-L family (Bacteroides thetaiotaomicron, UniProt Q8A0E6)
# T6 sequence (Q8A0E6 whole entry): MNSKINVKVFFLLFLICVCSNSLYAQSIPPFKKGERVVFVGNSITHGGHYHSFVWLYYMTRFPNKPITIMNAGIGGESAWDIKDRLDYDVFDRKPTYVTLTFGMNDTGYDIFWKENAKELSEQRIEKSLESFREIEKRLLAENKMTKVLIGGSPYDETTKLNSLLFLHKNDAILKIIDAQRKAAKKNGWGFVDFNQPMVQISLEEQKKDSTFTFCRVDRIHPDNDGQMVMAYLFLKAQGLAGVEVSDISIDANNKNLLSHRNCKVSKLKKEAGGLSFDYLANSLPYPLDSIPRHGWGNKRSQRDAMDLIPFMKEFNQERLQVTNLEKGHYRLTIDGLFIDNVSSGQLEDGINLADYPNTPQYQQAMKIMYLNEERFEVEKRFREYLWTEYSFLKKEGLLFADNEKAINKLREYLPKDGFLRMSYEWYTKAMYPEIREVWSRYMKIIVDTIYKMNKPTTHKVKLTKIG
# Test: as §1
# Type: ADME
# Set-up: dose 2 uM
# Conditions: 2 µM
row,Structure (SMILES),Bacterial Biotransformation
1,C#C[C@]1(O)CC[C@H]2[C@@H]3CCC4=CC(=O)CC[C@@H]4[C@H]3CC[C@@]21CC [LEVONORGESTREL],Compound NOT metabolized
2,CC(=O)OCC(CCn1cnc2cnc(N)nc21)COC(C)=O [FAMCICLOVIR],Compound NOT metabolized

# Target: T7, NADH dehydrogenase/NAD(P)H nitroreductase (Bacteroides thetaiotaomicron, UniProt Q8A8L9)
# T7 sequence (Q8A8L9 whole entry): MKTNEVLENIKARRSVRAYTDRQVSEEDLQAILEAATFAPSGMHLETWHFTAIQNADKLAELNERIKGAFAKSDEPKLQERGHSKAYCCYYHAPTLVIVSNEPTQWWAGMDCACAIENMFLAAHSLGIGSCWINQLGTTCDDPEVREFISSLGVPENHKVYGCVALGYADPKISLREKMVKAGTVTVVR
# Test: as §1
# Type: ADME
# Set-up: dose 2 uM
# Conditions: 2 µM
row,Structure (SMILES),Bacterial Biotransformation
1,C#C[C@]1(O)CC[C@H]2[C@@H]3CCC4=CC(=O)CC[C@@H]4[C@H]3CC[C@@]21CC [LEVONORGESTREL],Compound NOT metabolized
2,CC(=O)OCC(CCn1cnc2cnc(N)nc21)COC(C)=O [FAMCICLOVIR],Compound NOT metabolized

# Target: T8, Nitroreductase (Bacteroides thetaiotaomicron, UniProt Q8A911)
# T8 sequence (Q8A911 whole entry): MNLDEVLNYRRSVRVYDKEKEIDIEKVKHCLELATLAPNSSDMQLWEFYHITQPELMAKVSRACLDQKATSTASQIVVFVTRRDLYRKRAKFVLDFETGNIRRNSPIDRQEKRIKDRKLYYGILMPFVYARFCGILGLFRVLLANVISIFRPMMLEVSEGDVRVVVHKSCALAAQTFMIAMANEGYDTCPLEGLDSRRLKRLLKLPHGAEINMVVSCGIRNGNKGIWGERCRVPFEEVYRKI
# Test: as §1
# Type: ADME
# Set-up: dose 2 uM
# Conditions: 2 µM
row,Structure (SMILES),Bacterial Biotransformation
1,C#C[C@]1(O)CC[C@H]2[C@@H]3CCC4=CC(=O)CC[C@@H]4[C@H]3CC[C@@]21CC [LEVONORGESTREL],Compound NOT metabolized
2,CC(=O)OCC(CCn1cnc2cnc(N)nc21)COC(C)=O [FAMCICLOVIR],Compound NOT metabolized

# Reference: ChEMBL document CHEMBL5303573, “Mapping human microbiome drug metabolism by gut bacteria and their genes” (Nature, 2019)
